{
  "source": "patent US8377884B2",
  "about": "“Variants of C-type natriuretic peptides” (Biomarin Pharmaceutical Inc., priority 2007, dated 2013)",
  "key": {"[1]": {"target": "Recombinant human NEP (Homo sapiens, UniProt P08473)", "sequence (P08473 whole entry)": "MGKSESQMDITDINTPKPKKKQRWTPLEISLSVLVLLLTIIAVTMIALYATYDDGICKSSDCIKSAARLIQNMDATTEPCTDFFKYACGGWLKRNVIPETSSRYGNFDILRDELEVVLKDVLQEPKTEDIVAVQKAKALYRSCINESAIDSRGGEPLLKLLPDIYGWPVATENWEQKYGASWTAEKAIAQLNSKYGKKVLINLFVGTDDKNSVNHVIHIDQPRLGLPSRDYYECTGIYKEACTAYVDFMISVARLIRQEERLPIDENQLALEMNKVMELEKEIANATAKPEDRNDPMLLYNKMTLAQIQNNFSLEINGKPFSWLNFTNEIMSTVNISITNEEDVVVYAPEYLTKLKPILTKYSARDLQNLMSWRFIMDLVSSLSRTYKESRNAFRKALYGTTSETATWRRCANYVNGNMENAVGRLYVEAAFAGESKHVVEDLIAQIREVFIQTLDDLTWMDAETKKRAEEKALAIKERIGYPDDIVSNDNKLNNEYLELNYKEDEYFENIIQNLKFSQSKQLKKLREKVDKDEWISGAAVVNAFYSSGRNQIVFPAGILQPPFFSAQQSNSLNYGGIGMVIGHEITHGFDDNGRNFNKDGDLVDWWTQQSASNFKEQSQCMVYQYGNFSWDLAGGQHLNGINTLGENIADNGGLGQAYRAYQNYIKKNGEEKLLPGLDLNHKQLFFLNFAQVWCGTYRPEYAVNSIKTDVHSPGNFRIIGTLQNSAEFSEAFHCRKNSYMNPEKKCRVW", "assay": "In vitro neutral endopeptidase (NEP) cleavage assay", "summary_of_the_method": "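Recombinant human NEP (1 ug/mL final) incubated with 100 uM CNP variant in 0.1 M Tris, pH 7, at 37° C for various times, then quenched with EDTA (10 mM final) and heat. Samples reduced and analysed by HPLC and mass spectrometry. Half-life derived from loss of intact variant over time.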"}, "[2]": {"target": "T1, NPR-B (Mus musculus, UniProt Q6VVW5)", "T1 construct": "Murine NIH3T3 cells express endogenously the CNP signaling receptor, NPR-B; endogenous in cells; host or cells: NIH3T3 (murine fibroblasts)", "T1 sequence (Q6VVW5 17-1047)": "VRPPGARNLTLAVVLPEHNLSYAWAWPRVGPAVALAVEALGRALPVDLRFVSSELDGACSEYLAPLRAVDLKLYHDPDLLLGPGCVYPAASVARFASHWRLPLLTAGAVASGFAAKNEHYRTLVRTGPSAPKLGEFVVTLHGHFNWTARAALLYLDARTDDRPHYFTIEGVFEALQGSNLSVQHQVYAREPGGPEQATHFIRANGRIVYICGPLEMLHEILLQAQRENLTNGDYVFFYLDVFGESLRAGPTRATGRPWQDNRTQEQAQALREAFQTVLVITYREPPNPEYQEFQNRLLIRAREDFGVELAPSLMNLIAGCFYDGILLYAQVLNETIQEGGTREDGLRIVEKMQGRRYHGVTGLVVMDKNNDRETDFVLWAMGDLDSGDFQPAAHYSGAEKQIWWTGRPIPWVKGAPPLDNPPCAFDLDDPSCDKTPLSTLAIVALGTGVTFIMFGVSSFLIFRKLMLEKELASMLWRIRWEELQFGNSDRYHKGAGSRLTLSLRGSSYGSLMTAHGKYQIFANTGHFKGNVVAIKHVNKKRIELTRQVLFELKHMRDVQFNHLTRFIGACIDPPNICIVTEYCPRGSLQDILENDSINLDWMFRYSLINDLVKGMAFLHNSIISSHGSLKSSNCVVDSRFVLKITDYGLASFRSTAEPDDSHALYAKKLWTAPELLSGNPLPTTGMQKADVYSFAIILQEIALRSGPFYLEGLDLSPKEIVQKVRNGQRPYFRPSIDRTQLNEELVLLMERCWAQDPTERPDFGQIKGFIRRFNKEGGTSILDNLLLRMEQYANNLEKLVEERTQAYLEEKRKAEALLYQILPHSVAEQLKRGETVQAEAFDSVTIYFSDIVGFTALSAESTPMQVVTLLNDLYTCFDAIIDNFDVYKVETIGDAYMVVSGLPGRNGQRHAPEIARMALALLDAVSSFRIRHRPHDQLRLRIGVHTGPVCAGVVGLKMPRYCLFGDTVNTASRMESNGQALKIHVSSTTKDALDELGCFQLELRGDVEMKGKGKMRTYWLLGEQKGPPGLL", "assay": "Stimulation of cGMP production in NIH3T3 cells", "format": "cell-based, Murine", "conditions": "for cGMP response relative to 1 uM CNP22 (%) at 0.01 µM: read-out: cGMP Response rel. to 1 uM CNP22, 10 nM; for cGMP response relative to 1 uM CNP22 (%) at 1 µM: read-out: cGMP Response rel. to 1 uM CNP22, 1 uM"}, "[3]": {"conditions": "NIH3T3 cells, 10 nM natriuretic peptide, normalized to cell number and cGMP production with 1 uM wtCNP22"}, "[4]": {"conditions": "NIH3T3 cells, 1 uM natriuretic peptide, normalized to cell number and cGMP production with 1 uM wtCNP22"}},
  "note": "Like-named read-outs stand apart in the source and are kept apart here. Numbered stars: 1 amine (or outer) side, 2 acyl side, 3 side chain; on linkers, the order of the positions; unused ones are H or OH. Bridge positions count the residues as written; N and C are the ends. Square brackets hold non-standard residues; d marks the D form. Ends that are not written are not given here. Peptide text beside a SMILES is read from it. PEG2K = polydispersed PEG of number-average molecular weight 2 kDa; X1 = O=C(C(CN[*:1])c1ccccc1)[*:2]",
  "data": [
    {"compound": "CC[C@H](C)[C@@H]1NC(=O)[C@H](CCCNC(=N)N)NC(=O)[C@H](CC(=O)O)NC(=O)[C@H](CC(C)C)NC(=O)[C@H](CCCCN)NC(=O)[C@H](CC(C)C)NC(=O)CNC(=O)[C@H](Cc2ccccc2)NC[C@@H](NC(=O)CNC(=O)[C@H](CCCCN)NC(=O)[C@H](CO)NC(=O)[C@H](CC(C)C)NC(=O)CN)CSSC[C@@H](C(=O)O)NC(=O)CNC(=O)[C@H](CC(C)C)NC(=O)CNC(=O)[C@H](CO)NC(=O)[C@H](CCSC)NC(=O)[C@H](CO)NC(=O)CNC1=O", "note": "[A]", "values": [
      {"measurement": "resistance to cleavage at the Cys6-Phe7 bond relative to wtCNP22", "setting": "[1]; data not shown", "value": "resistance or improved resistance"}
    ]},
    {"compound": "CC[C@H](C)[C@@H]1NC(=O)[C@H](CCCNC(=N)N)NC(=O)[C@H](CC(=O)O)NC(=O)[C@H](CC(C)C)NC(=O)[C@H](CCCCN)NC(=O)[C@H](CC(C)C)NC(=O)CNC(=O)[C@H](Cc2ccccc2)NC(=O)[C@@H](NC(=O)CNC(=O)[C@H](CCCNC(=N)N)NC(=O)[C@H](CO)NC(=O)[C@H](CC(C)C)NC(=O)CNC(=O)[C@H](CCCNC(=N)N)NC(=O)[C@H](CCCNC(=N)N)NC(=O)[C@H](CC(N)=O)NC(=O)[C@H](C)NC(=O)CN)CSSC[C@@H](C(=O)O)NC(=O)CNC(=O)[C@H](CC(C)C)NC(=O)CNC(=O)[C@H](CO)NC(=O)[C@H](CCSC)NC(=O)[C@H](CO)NC(=O)CNC1=O", "note": "[Analog AY] (H-GANRRGLSRGCFGLKLDRIGSMSGLGC-OH; disulfide 11-27 (inferred); N-terminus and C-terminus assumed)", "values": [
      {"measurement": "resistance to NEP cleavage/degradation (in words)", "setting": "[1]", "value": "same lability to NEP hydrolysis as CNP22"}
    ]},
    {"compound": "CC[C@H](C)[C@@H]1NC(=O)[C@H](CCCNC(=N)N)NC(=O)[C@H](CC(=O)O)NC(=O)[C@H](CC(C)C)NC(=O)[C@H](CCCCN)NC(=O)[C@H](CC(C)C)NC(=O)CNC(=O)[C@H](Cc2ccccc2)NC(=O)[C@@H](NC(=O)CNC(=O)[C@H](CCCCN)NC(=O)[C@H](CO)NC(=O)[C@H](CC(C)C)NC(=O)CNC(=O)[C@H](CCCCN)NC(=O)[C@H](CCCCN)NC(=O)[C@H](CC(N)=O)NC(=O)[C@H](C)NC(=O)CNC(=O)[C@H](CCCCN)NC(=O)[C@H](Cc2ccc(O)cc2)NC(=O)[C@H](CCCCN)NC(=O)[C@H](CCCNC(=N)N)NC(=O)[C@H](C)NC(=O)[C@H](CC(N)=O)NC(=O)[C@@H]2CCCN2C(=O)[C@H](Cc2c[nH]cn2)NC(=O)[C@H](CCC(=O)O)NC(=O)[C@@H](N)CCC(N)=O)CSSC[C@@H](C(=O)O)NC(=O)CNC(=O)[C@H](CC(C)C)NC(=O)CNC(=O)[C@H](CO)NC(=O)[C@H](CCSC)NC(=O)[C@H](CO)NC(=O)CNC1=O", "note": "[Analog BL]", "values": [
      {"measurement": "resistance to NEP cleavage/degradation (in words)", "setting": "[1]", "value": "resistant to NEP degradation"}
    ]},
    {"compound": "CC[C@H](C)[C@@H]1NC(=O)[C@H](CCCNC(=N)N)NC(=O)[C@H](CC(=O)O)NC(=O)[C@H](CC(C)C)NC(=O)[C@H](CCCCN)NC(=O)[C@H](CC(C)C)NC(=O)CNC(=O)[C@H](Cc2ccccc2)N(C)C(=O)[C@@H](NC(=O)CNC(=O)[C@H](CCCCN)NC(=O)[C@H](CO)NC(=O)[C@H](CC(C)C)NC(=O)CN)CSSC[C@@H](C(=O)O)NC(=O)CNC(=O)[C@H](CC(C)C)NC(=O)CNC(=O)[C@H](CO)NC(=O)[C@H](CCSC)NC(=O)[C@H](CO)NC(=O)CNC1=O", "note": "[B]", "values": [
      {"measurement": "cGMP response relative to 1 uM CNP22 (%) at 0.01 µM", "setting": "[2]; NIH3T3, […]", "value": 2, "unit": "%"},
      {"measurement": "cGMP response relative to 1 uM CNP22 (%) at 1 µM", "setting": "[2]; NIH3T3, […]", "value": 38, "unit": "%"},
      {"measurement": "resistance to cleavage at the Cys6-Phe7 bond relative to wtCNP22", "setting": "[1]; data not shown", "value": "resistance or improved resistance"},
      {"measurement": "resistance to cleavage of the Gly8-Leu9 bond", "setting": "[1]; in the presence of 1 ug/mL NEP, data not shown", "value": "exhibited resistance"}
    ]},
    {"compound": "CC[C@H](C)[C@@H]1NC(=O)[C@H](CCCNC(=N)N)NC(=O)[C@H](CC(=O)O)NC(=O)[C@H](CC(C)C)NC(=O)[C@H](CCCCN)NC(=O)[C@H](CC(C)C)NC(=O)CNC(=O)[C@H](Cc2ccccc2)NC(=O)[C@@H](NC(=O)CNC(=O)[C@H](CCCCN)NC(=O)[C@H](CO)NC(=O)[C@H](CC(C)C)NC(=O)CNC(=O)[C@H](C)NC(=O)[C@H](CC(N)=O)NC(=O)[C@@H]2CCCN2C(=O)[C@H](Cc2c[nH]cn2)NC(=O)[C@H](CCC(=O)O)NC(=O)[C@H](CCC(N)=O)NC(=O)[C@H](CC(C)C)NC(=O)[C@H](CC(C)C)NC(=O)[C@H](CCCNC(=N)N)NC(=O)[C@H](C)NC(=O)[C@H](Cc2c[nH]c3ccccc23)NC(=O)[C@H](C)NC(=O)[C@H](C)N)CSSC[C@@H](C(=O)O)NC(=O)CNC(=O)[C@H](CC(C)C)NC(=O)CNC(=O)[C@H](CO)NC(=O)[C@H](CCSC)NC(=O)[C@H](CO)NC(=O)CNC1=O", "note": "[CA] (H-AAWARLLQEHPNAGLSKGCFGLKLDRIGSMSGLGC-OH; disulfide 19-35 (inferred); N-terminus and C-terminus assumed)", "values": [
      {"measurement": "cGMP response relative to 1 uM CNP22 (%) at 0.01 µM", "setting": "[2]; [3]", "value": 24, "unit": "%"},
      {"measurement": "cGMP response relative to 1 uM CNP22 (%) at 1 µM", "setting": "[2]; [4]", "value": 76, "unit": "%"},
      {"measurement": "resistance to NEP cleavage/degradation (in words)", "setting": "[1]", "value": "much more resistant to NEP cleavage than CNP22"}
    ]},
    {"compound": "CC[C@H](C)[C@@H]1NC(=O)[C@H](CCCNC(=N)N)NC(=O)[C@H](CC(=O)O)NC(=O)[C@H](CC(C)C)NC(=O)[C@H](CCCCN)NC(=O)[C@H](CC(C)C)NC(=O)CNC(=O)[C@H](Cc2ccccc2)NC(=O)[C@@H](NC(=O)CNC(=O)[C@H](CCCCN)NC(=O)[C@H](CO)NC(=O)[C@H](CC(C)C)NC(=O)CNC(=O)[C@H](CCCNC(=N)N)NC(=O)[C@H](C)NC(=O)[C@H](CC(N)=O)NC(=O)[C@@H]2CCCN2C(=O)[C@H](Cc2c[nH]cn2)NC(=O)[C@H](CCC(=O)O)NC(=O)[C@H](CCC(N)=O)NC(=O)[C@H](CC(C)C)NC(=O)[C@H](CC(C)C)NC(=O)[C@H](CCCNC(=N)N)NC(=O)[C@H](C)NC(=O)[C@H](Cc2c[nH]c3ccccc23)NC(=O)[C@H](C)NC(=O)[C@H](C)N)CSSC[C@@H](C(=O)O)NC(=O)CNC(=O)[C@H](CC(C)C)NC(=O)CNC(=O)[C@H](CO)NC(=O)[C@H](CCSC)NC(=O)[C@H](CO)NC(=O)CNC1=O", "note": "[CB] (H-AAWARLLQEHPNARGLSKGCFGLKLDRIGSMSGLGC-OH; disulfide 20-36 (inferred); N-terminus and C-terminus assumed)", "values": [
      {"measurement": "cGMP response relative to 1 uM CNP22 (%) at 0.01 µM", "setting": "[2]; [3]", "value": 36, "unit": "%"},
      {"measurement": "cGMP response relative to 1 uM CNP22 (%) at 1 µM", "setting": "[2]; [4]", "value": 84, "unit": "%"},
      {"measurement": "resistance to NEP cleavage/degradation (in words)", "setting": "[1]", "value": "much more resistant to NEP cleavage than CNP22"}
    ]},
    {"compound": "CC[C@H](C)[C@@H]1NC(=O)[C@H](CCCNC(=N)N)NC(=O)[C@H](CC(=O)O)NC(=O)[C@H](CC(C)C)NC(=O)[C@H](CCCCN)NC(=O)[C@H](CC(C)C)NC(=O)CNC(=O)C(c2ccccc2)CNC(=O)[C@@H](NC(=O)CNC(=O)[C@H](CCCCN)NC(=O)[C@H](CO)NC(=O)[C@H](CC(C)C)NC(=O)CN)CSSC[C@@H](C(=O)O)NC(=O)CNC(=O)[C@H](CC(C)C)NC(=O)CNC(=O)[C@H](CO)NC(=O)[C@H](CCSC)NC(=O)[C@H](CO)NC(=O)CNC1=O", "note": "(stereo partly shown) [H] (H-GLSKGC[X1]GLKLDRIGSMSGLGC-OH; disulfide 6-22; N-terminus and C-terminus assumed)", "values": [
      {"measurement": "resistance to cleavage at the Cys6-Phe7 bond relative to wtCNP22", "setting": "[1]", "value": "resistance or improved resistance"}
    ]},
    {"compound": "DLRVDTKSRAAWARLLQEHPNARKYKGANKKGLSKGCFGLKLDRIGSMSGLGC (disulfide 37-53 (inferred)) [Analog BM]", "values": [
      {"measurement": "resistance to NEP cleavage/degradation (in words)", "setting": "[1]", "value": "resistant to NEP degradation"}
    ]},
    {"compound": "PEG2K-CNP22(K4G): CNP22 having a K4G substitution, N-terminal PEGylated with PEG2K (PEG2K-GLSGGCFGLKLDRIGSMSGLGC; disulfide 6-22 (inferred); UniProt P23582 105-126, looked up, variant K4G)", "values": [
      {"measurement": "resistance to NEP cleavage/degradation (in words)", "setting": "[1]", "value": "only slightly more resistant to NEP cleavage than CNP22"}
    ]}
  ]
}
